Reference: patent US20230099441A1, “HETEROCYCLIC COMPOUND, APPLICATION THEREOF, AND COMPOSITION CONTAINING SAME” (GenEros Biopharma Ltd., priority 2019, published 2023)

Key:
[1] = test system: mouse collagen-induced arthritis model; assay: Therapeutic efficacy in a mouse collagen-induced arthritis model (clinical score); assay type: in vivo; conditions: for clinical score of arthritis, Mean (the larger the value, the more severe the disease): mean of group, total score 0-12, oral, Methotrexate 0.25 mg/kg once a week, Tofacitinib 5 mg/kg once a day, X8 1 mg/kg once a day
Description: Example of Effect 2: Evaluation of the Therapeutic Efficacy of X8 Compound in a Mouse Collagen-Induced Arthritis Model
(§1) Sixty male DBA/1J mice (9-10 weeks old, H-2q haplotype) were acclimatized in a standard animal room for one week and then randomly divided into 5 groups. Except for the healthy control group, the rest were inoculated with collagen antigen injection, and then received oral treatment with different compounds. The brief procedure was to mix bovine type II collagen (purchased from Chondrex, 20021) with an equal volume of Freund's complete adjuvant (purchased from Sigma, F5881), the concentration was 4 mg/ml, and it was treated with a homogenizer at a speed of 20,000 revolutions/min for 5-10 minutes. A needle was inserted between the left side of the dorsal caudal artery and the lateral vein of the mouse, and 50 microliters of modeling agent was injected subcutaneously. 21 days after the first injection, another injection was injected between the right side of the dorsal tail artery and the lateral vein of the mouse. After the first injection, oral administration was started. The drug was formulated with […] PEG300, and it was prepared for immediate use. […] The total score was between 0-12 points, and the swelling of the foot after vaccination was not calculated.

[2] = test system: STAT5 Y694 phosphorylation; assay: Protein electrophoresis and blotting of STAT5 Y694 phosphorylation in Jurkat cells stimulated with human interferon beta; assay type: cell-based; conditions: for Inhibiting Ratio (0% for vehicle control): 1 hour pretreatment, 20 ng/ml human interferon beta 30 minutes, pSTAT5/GAPDH
Summary of the method: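 Serum-free Jurkat cells pretreated with compound 1 h, then stimulated with 20 ng/ml human interferon beta for 30 min at 37° C. pSTAT5 measured by western blot with chemiluminescence, normalized to GAPDH and expressed as percent of DMSO control.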

[3] = Body weight of animals in the mouse collagen-induced arthritis model; assay type: in vivo; conditions: oral, X8 1 mg/kg once a day; for body weight of animals, Mean/g: mean of group, Methotrexate 0.25 mg/kg once a week, Tofacitinib 5 mg/kg once a day
Description: as §1

Structure (SMILES): O=C(Cc1ccc(C(F)(F)F)cc1)N1CCC(n2c(=O)[nH]c3ccccc32)CC1 [Example X8, 1-(1-(2-(4-(trifluoromethyl)phenyl)acetyl)piperidin-4-yl)-1H-benzo[d]imidazole-2(3H)-one]
- therapeutic effect on severity of the disease (in words) ([1]; X8 1 mg/kg once a day oral, compared with tofacitinib 5 mg/kg once a day): comparable effects to the tofacitinib treatment group, which significantly reduced the severity of the disease
- clinical score of arthritis, Mean (the larger the value, the more severe the disease) ([1]; day 0): 0.00
- clinical score of arthritis, Mean (the larger the value, the more severe the disease) ([1]; day 21): 0.00
- clinical score of arthritis, Mean (the larger the value, the more severe the disease) ([1]; day 25): 0.00
- clinical score of arthritis, Mean (the larger the value, the more severe the disease) ([1]; day 28): 0.98
- clinical score of arthritis, Mean (the larger the value, the more severe the disease) ([1]; day 31): 1.66
- clinical score of arthritis, Mean (the larger the value, the more severe the disease) ([1]; day 33): 2.39
- clinical score of arthritis, Mean (the larger the value, the more severe the disease) ([1]; day 35): 2.64
- clinical score of arthritis, Mean (the larger the value, the more severe the disease) ([1]; day 38): 2.87
- clinical score of arthritis, Mean (the larger the value, the more severe the disease) ([1]; day 40): 2.87
- clinical score of arthritis, Mean (the larger the value, the more severe the disease) ([1]; day 42): 3.17
- clinical score of arthritis, Mean (the larger the value, the more severe the disease) ([1]; day 45): 3.39
- Inhibiting Ratio (0% for vehicle control) ([2]; 1 μM): 6.9%
- Inhibiting Ratio (0% for vehicle control) ([2]; 10 μM): 31.4%
- Inhibiting Ratio (0% for vehicle control) ([2]; 100 μM): 95.6%
- Example of Effect 1: Inhibiting Ability (Protein Electrophoresis and Blotting) ([2]; observed pSTAT5 bands at 10 μM and 100 μM): +
- body weight of animals, Mean/g ([3]; day 0): 21.50 g
- body weight of animals, Mean/g ([3]; day 4): 21.52 g
- body weight of animals, Mean/g ([3]; day 7): 21.93 g
- body weight of animals, Mean/g ([3]; day 11): 21.90 g
- body weight of animals, Mean/g ([3]; day 14): 21.92 g
- body weight of animals, Mean/g ([3]; day 18): 22.23 g
- body weight of animals, Mean/g ([3]; day 20): 22.50 g
- body weight of animals, Mean/g ([3]; day 25): 22.07 g
- body weight of animals, Mean/g ([3]; day 28): 21.82 g
- body weight of animals, Mean/g ([3]; day 31): 21.71 g
- body weight of animals, Mean/g ([3]; day 33): 21.82 g
- body weight of animals, Mean/g ([3]; day 35): 21.55 g
- body weight of animals, Mean/g ([3]; day 38): 21.71 g
- body weight of animals, Mean/g ([3]; day 40): 21.64 g
- body weight of animals, Mean/g ([3]; day 42): 21.61 g
- body weight of animals, Mean/g ([3]; day 45): 21.98 g
- effect on body weight of animals (in words) ([3]; whole experiment, days 0-45, methotrexate 0.25 mg/kg once a week, tofacitinib 5 mg/kg once a day): no significant effect on body weight of animals, and no drastic changes were seen
